Test results published in the NIST ThermoML archive (doi:10.1021/je049595u).

Columns and labels:
[1] = Molar enthalpy of transition or fusion; details: Crystal
[2] = molar heat capacity at saturation pressure

Cc1ccc2ccccc2n1 [2-methylquinoline]
Details | mass density [kg/m3] | molar heat capacity [J/K/mol] | vapor or sublimation pressure [kPa]
319.99 K, Liquid, Inclined piston gauge | – | – | 0.0315
329.98 K, Liquid, Inclined piston gauge | – | – | 0.063
339.99 K, Liquid, Inclined piston gauge | – | – | 0.1198
349.98 K, Liquid, Inclined piston gauge | – | – | 0.2174
364.98 K, Liquid, Inclined piston gauge | – | – | 0.4962
374.98 K, Liquid, Inclined piston gauge | – | – | 0.8233
384.97 K, Liquid, Inclined piston gauge | – | – | 1.323
394.24 K, Liquid, Twin ebulliometer | – | – | 2
394.97 K, Liquid, Inclined piston gauge | – | – | 2.066
404.97 K, Liquid, Inclined piston gauge | – | – | 3.141
411.02 K, Liquid, Twin ebulliometer | – | – | 4
418.53 K, Liquid, Twin ebulliometer | – | – | 5.333
429.68 K, Liquid, Twin ebulliometer | – | – | 7.999
438.05 K, Liquid, Twin ebulliometer | – | – | 10.67
444.81 K, Liquid, Twin ebulliometer | – | – | 13.33
451.84 K, Liquid, Twin ebulliometer | – | – | 16.66
457.68 K, Liquid, Twin ebulliometer | – | – | 19.93
465.36 K, Liquid, Twin ebulliometer | – | – | 25.02
473.1 K, Liquid, Twin ebulliometer | – | – | 31.18
480.89 K, Liquid, Twin ebulliometer | – | – | 38.56
488.72 K, Liquid, Twin ebulliometer | – | – | 47.38
496.61 K, Liquid, Twin ebulliometer | – | – | 57.82
504.55 K, Liquid, Twin ebulliometer | – | – | 70.12
512.53 K, Liquid, Twin ebulliometer | – | – | 84.53
520.57 K, Liquid, Twin ebulliometer | – | – | 101.33
528.66 K, Liquid, Twin ebulliometer | – | – | 120.79
536.8 K, Liquid, Twin ebulliometer | – | – | 143.25
544.98 K, Liquid, Twin ebulliometer | – | – | 169.02
553.22 K, Liquid, Twin ebulliometer | – | – | 198.49
561.5 K, Liquid, Twin ebulliometer | – | – | 232.02
569.83 K, Liquid, Twin ebulliometer | – | – | 270.02
762.9 K, Gas, Measured as part of TC determination by DSC | 163.3 | – | –
773.9 K, Liquid, Measured as part of TC determination by DSC | 410.8 | – | –
775.2 K, Gas, Measured as part of TC determination by DSC | 236.6 | – | –
775.9 K, Liquid, Measured as part of TC determination by DSC | 355.4 | – | –
777.9 K, Gas, Measured as part of TC determination by DSC | 292.9 | – | –
[2], 460 K, Liquid | – | 291.16 | –
[2], 480 K, Liquid | – | 299.73 | –
[2], 500 K, Liquid | – | 308.3 | –
[2], 520 K, Liquid | – | 316.87 | –
[2], 540 K, Liquid | – | 325.39 | –
[2], 560 K, Liquid | – | 333.78 | –
[2], 580 K, Liquid | – | 341.97 | –
[2], 600 K, Liquid | – | 349.93 | –
[2], 620 K, Liquid | – | 357.61 | –
[2], 640 K, Liquid | – | 365.01 | –
[2], 660 K, Liquid | – | 372.23 | –
[2], 680 K, Liquid | – | 379.58 | –
[2], 700 K, Liquid | – | 387.75 | –

Details | Critical temperature, Liquid [K] | mass density, 323.14 K [kg/m3] | mass density, 348.14 K [kg/m3] | mass density, 373.12 K [kg/m3] | mass density, 398.12 K [kg/m3] | mass density, 423.11 K [kg/m3] | mass density, 448.11 K [kg/m3] | mass density, 473.11 K [kg/m3] | mass density, 498.11 K [kg/m3] | mass density, 523.11 K [kg/m3]
DTA | 778 | – | – | – | – | – | – | – | – | –
Liquid | – | 1035.2 | 1015.9 | 996.1 | 973.9 | 952.8 | 931.9 | 910.8 | 888.8 | 865.1

Details | Molar enthalpy of transition or fusion [kcal/mol] | Triple point temperature [K]
Crystal | – | 270.48
[1] | 2.992 | –

molar heat capacity [J/K/mol], [2], Vacuum adiabatic calorimetry
Details | Crystal | Liquid
5 K | 0.46 | –
5.565 K | 0.62 | –
6.404 K | 0.956 | –
7.354 K | 1.4 | –
8.354 K | 1.96 | –
9.372 K | 2.64 | –
10 K | 3.14 | –
10.39 K | 3.48 | –
11.53 K | 4.41 | –
12.8 K | 5.65 | –
14.21 K | 7.09 | –
15.75 K | 8.78 | –
17.46 K | 10.78 | –
19.36 K | 13.04 | –
20 K | 13.79 | –
21.49 K | 15.56 | –
23.83 K | 18.39 | –
26.43 K | 21.5 | –
29.31 K | 24.82 | –
30 K | 25.6 | –
32.52 K | 28.38 | –
36.12 K | 32.14 | –
39.68 K | 35.64 | –
40 K | 35.96 | –
43.66 K | 39.34 | –
48.56 K | 43.53 | –
50 K | 44.72 | –
52.54 K | 46.74 | –
53.49 K | 47.45 | –
53.98 K | 47.92 | –
57.46 K | 50.56 | –
58.64 K | 51.46 | –
60 K | 52.34 | –
60.03 K | 52.29 | –
63.2 K | 54.47 | –
64.47 K | 55.29 | –
69.56 K | 58.68 | –
70 K | 58.93 | –
76.52 K | 62.82 | –
80 K | 64.8 | –
84.08 K | 67.08 | –
89.02 K | 69.74 | –
90 K | 70.27 | –
92.31 K | 71.48 | –
97.21 K | 73.97 | –
100 K | 75.42 | –
101.28 K | 76.06 | –
106.32 K | 78.59 | –
110.83 K | 80.82 | –
116.09 K | 83.37 | –
120 K | 85.27 | –
125.97 K | 88.15 | –
135.92 K | 92.98 | –
140 K | 94.96 | –
145.89 K | 97.82 | –
155.92 K | 102.78 | –
160 K | 104.8 | –
166.03 K | 107.81 | –
176.22 K | 112.93 | –
180 K | 114.86 | –
187.41 K | 118.71 | –
190.57 K | 120.24 | –
199.53 K | 125.07 | –
200 K | 125.32 | –
205.56 K | 128.27 | –
211.51 K | 131.45 | –
220 K | 135.9 | –
222.27 K | 136.99 | –
223.47 K | 137.78 | –
223.49 K | 138.03 | –
235.04 K | 144.29 | –
235.46 K | 144.65 | –
239.04 K | 146.8 | –
240 K | 147.3 | –
241.52 K | 148.31 | –
247.49 K | 151.95 | –
250 K | – | 205.2
250.7 K | 154.08 | –
251.78 K | – | 205.82
256.02 K | – | 207.51
257.75 K | 159.11 | –
259.67 K | 160.66 | –
260 K | 160.12 | 209.03
261.22 K | 161.55 | –
263.55 K | – | 210.39
270.48 K | 167.45 | 212.97
272.7 K | – | 213.77
277.13 K | – | 215.45
278.52 K | – | 216.02
280 K | – | 216.58
285.4 K | – | 218.72
286.61 K | – | 219.19
294.19 K | – | 222.16
298.15 K | – | 223.78
300 K | – | 224.52
300.52 K | – | 224.72
310.63 K | – | 228.85
320 K | – | 232.73
327.13 K | – | 235.7
340 K | – | 241.04
343.64 K | – | 242.54
360 K | – | 249.4
360.17 K | – | 249.47
376.73 K | – | 256.39
380 K | – | 257.77
393.31 K | – | 263.29
400 K | – | 266.05
409.82 K | – | 270.1
420 K | – | 274.27
426.33 K | – | 276.86
439.48 K | – | 282.23
440 K | – | 282.48
